Results reported in ChEMBL document CHEMBL3596146, “Design, synthesis, and biological evaluation of a series of alkoxy-3-indolylacetic acids as peroxisome proliferator-activated receptor γ/δ agonists” (Bioorg Med Chem, 2015).
Active and inactive are the calls of the source. The calls are words filed in the database; no cut-off is given here.

Assays:
[1] = biological target: T1, Peroxisome proliferator-activated receptor delta (Homo sapiens) (UniProt Q03181); experiment: Agonist activity at PPAR-delta (unknown origin) expressed in HEK293t cells co-transfected with tk-PPRE-luciferase vector at 10 uM after 24 hrs by transactivation assay relative to GW0742; type: cell-based; conditions: HEK-293T
T1 sequence (whole entry): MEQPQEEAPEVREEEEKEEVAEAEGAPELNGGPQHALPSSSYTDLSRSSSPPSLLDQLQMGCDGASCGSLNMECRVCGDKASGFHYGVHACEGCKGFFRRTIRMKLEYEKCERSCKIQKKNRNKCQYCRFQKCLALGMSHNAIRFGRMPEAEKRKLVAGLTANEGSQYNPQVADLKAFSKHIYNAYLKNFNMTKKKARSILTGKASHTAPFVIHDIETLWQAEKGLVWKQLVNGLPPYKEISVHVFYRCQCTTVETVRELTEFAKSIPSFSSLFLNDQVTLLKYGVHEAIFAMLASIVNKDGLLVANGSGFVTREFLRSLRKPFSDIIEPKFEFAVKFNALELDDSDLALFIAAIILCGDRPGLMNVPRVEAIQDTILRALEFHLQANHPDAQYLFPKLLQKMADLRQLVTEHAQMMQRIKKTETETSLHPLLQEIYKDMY

[2] = biological target: T2, Peroxisome proliferator-activated receptor gamma (Homo sapiens, UniProt P37231); experiment: Agonist activity at PPAR-gamma (unknown origin) expressed in CV-1 cells co-transfected with tk-PPRE-luciferase vector after 24 hrs by transactivation assay; type: cell-based
T2 sequence (P37231 whole entry): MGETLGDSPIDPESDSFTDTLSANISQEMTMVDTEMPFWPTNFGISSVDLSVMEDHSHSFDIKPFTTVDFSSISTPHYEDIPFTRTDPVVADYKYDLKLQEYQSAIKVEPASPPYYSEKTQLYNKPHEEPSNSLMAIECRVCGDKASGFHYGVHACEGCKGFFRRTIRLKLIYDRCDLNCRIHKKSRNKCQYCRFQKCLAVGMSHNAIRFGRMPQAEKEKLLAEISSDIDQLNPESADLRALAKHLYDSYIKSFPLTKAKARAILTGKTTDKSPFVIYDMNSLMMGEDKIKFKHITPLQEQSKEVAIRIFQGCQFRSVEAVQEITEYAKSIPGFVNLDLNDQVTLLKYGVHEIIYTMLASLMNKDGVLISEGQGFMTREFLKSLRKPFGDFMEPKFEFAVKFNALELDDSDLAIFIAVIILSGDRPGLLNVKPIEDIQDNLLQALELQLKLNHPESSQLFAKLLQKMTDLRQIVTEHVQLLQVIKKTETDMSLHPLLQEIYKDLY

[3] = biological target: T3, Peroxisome proliferator-activated receptor gamma (Homo sapiens) (UniProt P37231); experiment: Agonist activity at PPAR-gamma (unknown origin) expressed in CV-1 cells co-transfected with tk-PPRE-luciferase vector at 10 uM after 24 hrs by transactivation assay relative to rosiglitazone; type: cell-based
T3 sequence (whole entry): T2 sequence (P37231 whole entry)

[4] = biological target: T4, Peroxisome proliferator-activated receptor alpha (Homo sapiens, UniProt Q07869); experiment: Agonist activity at PPAR-alpha (unknown origin) expressed in CV-1 cells co-transfected with tk-PPRE-luciferase vector after 24 hrs by transactivation assay; type: cell-based
T4 sequence (Q07869 whole entry): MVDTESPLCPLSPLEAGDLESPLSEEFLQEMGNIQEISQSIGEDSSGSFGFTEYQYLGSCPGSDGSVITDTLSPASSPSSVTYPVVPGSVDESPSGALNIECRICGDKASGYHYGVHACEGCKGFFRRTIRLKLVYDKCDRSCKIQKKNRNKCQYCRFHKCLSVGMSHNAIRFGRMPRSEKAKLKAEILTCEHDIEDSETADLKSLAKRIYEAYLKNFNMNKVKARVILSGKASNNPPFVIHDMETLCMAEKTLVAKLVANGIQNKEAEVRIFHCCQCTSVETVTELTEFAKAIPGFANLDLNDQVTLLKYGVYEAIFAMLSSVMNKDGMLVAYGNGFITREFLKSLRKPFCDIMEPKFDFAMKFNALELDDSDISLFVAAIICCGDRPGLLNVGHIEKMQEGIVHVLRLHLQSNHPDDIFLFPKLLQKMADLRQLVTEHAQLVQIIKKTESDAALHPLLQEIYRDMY

[5] = biological target: T5, Peroxisome proliferator-activated receptor delta (Homo sapiens, UniProt Q03181); experiment: Agonist activity at PPAR-delta (unknown origin) expressed in HEK293t cells co-transfected with tk-PPRE-luciferase vector after 24 hrs by transactivation assay; type: cell-based, HEK-293T
T5 sequence (Q03181 whole entry): T1 sequence (whole entry)

[6] = Retention time of the compound by HPLC analysis; type: physicochemical
Liver microsome [7] = experiment: Metabolic stability in human liver microsomes at 1 uM after 30 mins measured under phase 1 reaction by LC/MS/MS analysis; type: ADME; conditions: 0.5 h
[8] = Metabolic stability in mouse liver microsomes at 1 uM after 30 mins measured under phase 1 reaction by LC/MS/MS analysis; type: ADME; conditions: 0.5 h
[9] = biological target: T6, Peroxisome proliferator-activated receptor alpha (Homo sapiens) (UniProt Q07869); experiment: Agonist activity at PPAR-alpha (unknown origin) expressed in CV-1 cells co-transfected with tk-PPRE-luciferase vector at 10 uM after 24 hrs by transactivation assay relative to GW7647; type: cell-based
T6 sequence (whole entry): T4 sequence (Q07869 whole entry)

Liver microsome [10] = experiment: Metabolic stability in human liver microsomes at 1 uM after 30 mins measured under phase 2 reaction by LC/MS/MS analysis; type: ADME; conditions: 0.5 h
[11] = Metabolic stability in mouse liver microsomes at 1 uM after 30 mins measured under phase 2 reaction by LC/MS/MS analysis; type: ADME; conditions: 0.5 h
Mus musculus [12] = experiment: Decrease in size of adipocytes in C57BLKS/J-Lepr/Lepr db/db mouse white adipose tissue at 10 mg/kg, po administered via gavage by hematoxylin-eosin staining relative to untreated control; type: functional
Mus musculus [13] = experiment: Effect on body weight in C57BLKS/J-Lepr/Lepr db/db mouse at 3 to 10 mg/kg, po qd for 18 days administered via gavage; type: ADME, organism-based; conditions: in vivo, 432 h
Mus musculus [14] = experiment: Decrease in serum Hb1Ac level in C57BLKS/J-Lepr/Lepr db/db mouse at 3 to 10 mg/kg, po qd for 18 days administered via gavage by ELISA; type: functional, organism-based
Mus musculus [15] = experiment: Decrease in fasting blood glucose level in C57BLKS/J-Lepr/Lepr db/db mouse at 3 to 10 mg/kg, po qd for 18 days administered via gavage by ELISA; type: functional, organism-based
Mus musculus [16] = experiment: Decrease in serum insulin level in C57BLKS/J-Lepr/Lepr db/db mouse at 3 to 10 mg/kg, po qd for 18 days administered via gavage by ELISA; type: functional, organism-based
Mus musculus [17] = experiment: Decrease in triglyceride content in C57BLKS/J-Lepr/Lepr db/db mouse liver at 3 mg/kg, po administered via gavage by hematoxylin-eosin staining; type: functional
Mus musculus [18] = experiment: Decrease in size of adipocytes in C57BLKS/J-Lepr/Lepr db/db mouse white adipose tissue at 10 mg/kg, po administered via gavage by hematoxylin-eosin staining relative to rosiglitazone-treated control; type: functional
Mus musculus [19] = experiment: Decrease in serum insulin level in C57BLKS/J-Lepr/Lepr db/db mouse at 10 mg/kg, po qd for 18 days administered via gavage by ELISA; type: functional, organism-based
Mus musculus [20] = experiment: Decrease in fasting blood glucose level in C57BLKS/J-Lepr/Lepr db/db mouse at 10 mg/kg, po qd for 18 days administered via gavage by ELISA; type: functional, organism-based
Mus musculus [21] = experiment: Decrease in serum Hb1Ac level in C57BLKS/J-Lepr/Lepr db/db mouse at 10 mg/kg, po qd for 18 days administered via gavage by ELISA; type: functional, organism-based
Mus musculus [22] = experiment: Increase in body weight in C57BLKS/J-Lepr/Lepr db/db mouse at 10 mg/kg, po qd for 18 days administered via gavage measured on day 16 relative to untreated control; type: ADME, organism-based; conditions: in vivo, 432 h
Mus musculus [23] = experiment: Increase in triglyceride content in C57BLKS/J-Lepr/Lepr db/db mouse liver at 10 mg/kg, po administered via gavage by hematoxylin-eosin staining; type: functional

Structure (SMILES)	Emax [1] [%]	Emax [3] [%]	EC50 [5] [µM]	Retention_time [6] [min]	Emax [9] [%]	further results
Cc1ccc(COc2cccc(OCCCOc3ccc4[nH]cc(CC(=O)O)c4c3)c2)cc1	84.1	134	7.2	8.984	69.3	EC50 [2]: 1.7 µM; EC50 [4]: 13.8 µM; Stability (Liver microsome [7]): Stable; Stability [8]: Stable
COc1ccc(COc2cccc(OCCOc3ccc4c(c3)c(CC(=O)O)cn4Cc3ccccc3)c2)cc1	122	90.9	6.3	10.127	25.8	EC50 [2]: 1.9 µM; EC50 [4]: 5.9 µM; Stability (Liver microsome [7]): Unstable; Stability [8]: Stable
Cc1ccc(COc2cccc(OCCCOc3ccc4c(CC(=O)O)cn(Cc5ccccc5)c4c3)c2)cc1	90.2	130	9.4	18.125	26.5	EC50 [2]: 1.3 µM; EC50 [4]: 19.2 µM; Stability (Liver microsome [7]): Stable; Stability (Liver microsome [10]): Stable; Stability [11]: Stable; Stability [8]: Stable
O=C(O)Cc1cn(Cc2ccccc2)c2ccc(OCCCOc3cccc(OCc4ccc(Cl)cc4)c3)cc12	82	100	2.2	24.111	31.2	inhibition in vivo at 10 mg/kg (Mus musculus [12]): 18%; Activity (Mus musculus [13]): Non-toxic; EC50 [2]: 0.5 µM; EC50 [4]: 8.6 µM; inhibition (Mus musculus [14]): Active; inhibition (Mus musculus [15]): Active; Stability (Liver microsome [7]): Stable; Stability (Liver microsome [10]): Stable; Stability [11]: Stable; Stability [8]: Stable; inhibition (Mus musculus [16]): Active; inhibition in vivo at 3 mg/kg (Mus musculus [17]): 24%; inhibition in vivo at 10 mg/kg (Mus musculus [18]): 36%
O=C(O)Cc1c[nH]c2ccc(OCCCOc3cccc(OCc4ccc(F)cc4)c3)cc12	32	66.9		7.106	25.8	
Cc1ccc(COc2cccc(OCCCOc3ccc4c(c3)c(CC(=O)O)cn4Cc3ccccc3)c2)cc1	83	109		21.719	31.4	
Cc1cccc(OCCOc2ccc3[nH]cc(CC(=O)O)c3c2)c1	27.9	31.3		4.444	21.8	
O=C(O)Cc1c[nH]c2ccc(OCCOc3cccc(OCc4ccc(C(F)(F)F)cc4)c3)cc12	83	103		7.193	43	
O=C(O)Cc1c[nH]c2ccc(OCCCOc3cccc(Oc4ccc(Cl)cc4)c3)cc12	37.9	106		9.322	59.2	
O=C(O)Cc1cn(Cc2ccc(F)cc2)c2ccc(OCCCOc3cccc(OCc4ccc(Cl)cc4)c3)cc12	133	92.7	0.75	23.205	34.3	
O=C(O)Cc1cn(Cc2ccccc2)c2ccc(OCCCOc3ccccc3OCc3ccc(Cl)cc3)cc12	74.9	89.2		15.313	27.1	
O=C(O)Cc1cn(Cc2ccccc2)c2ccc(OCCCOc3cccc(Oc4ccc(Cl)cc4)c3)cc12	88.8	99.8		25.456	34	
O=C(O)Cc1cn(Cc2ccccc2)c2ccc(OCCOc3cccc(OCc4ccc(C(F)(F)F)cc4)c3)cc12	73.9	85.7		18.375	23.4	
O=C(O)Cc1c[nH]c2ccc(OCCCOc3cccc(OCc4ccc(Cl)cc4)c3)cc12	63.7	104		9.64	56.7	
CN(CCOc1ccc(CC2SC(=O)NC2=O)cc1)c1ccccn1 (stereo not drawn) [ROSIGLITAZONE]						inhibition (Mus musculus [19]): Active; inhibition (Mus musculus [20]): Active; inhibition (Mus musculus [21]): Active; increase (Mus musculus [22]): 10%; Activity (Mus musculus [23]): 22%
